From patent EP2439195B1, “NAPHTHALENE CARBOXAMIDE DERIVATIVES AS INHIBITORS OF PROTEIN KINASE AND HISTONE DEACETYLASE, PREPARATION METHODS AND USES THEREOF” (Shenzhen Chipscreen Biosciences, Ltd., priority 2009, dated 2010)
Like-named read-outs stand apart in the source and are kept apart here.

Legend:
total HDAC enzyme = test: In vitro total HDAC enzyme activity (HDAC Fluorimetric Assay/Drug Discovery Kit, HeLa cell nuclear extract); format: biochemical
Procedure: The in vitro total HDAC enzyme activity was determined by HDAC Fluorimetric Assay/Drug Discovery Kit (BIOMOL) according to manufacture's instruction. The principle of the experiment is as follows: under the action of histone deacetylase (in the experiment, HeLa cell nuclear extract, which was rich in a variety of subtypes of HDAC, was used), an acetyl group is removed from a special substrate Fluor de Lys, thus the free amino is exposed. Upon Developer is added, the substrate will produce fluorescence. For the fluorescence, excitation wavelength is 360nm, and emission wavelength is 460nm. More fully the substrate deacetylated, more higher the fluorescence induced. In the absence of inhibitors, the fluorescence value is taken as the control; when inhibitor is existed, fluorescence value induced will be reduced, while in the case no enzyme is existed (corresponding to the completely inhibition of enzyme activity) the fluorescence value is blank. Generally, after suppression the fluorescence values will be between the control and blank. When analysis is made, blank will be used as 0, and the control will be used as 1. Smaller value means higher inhibitory activity. 1. Add Assay buffer, diluted trichostatin A and test inhibitor to appropriate wells of the microtiter plate. Following table lists the amounts used for each regent of various assay types.
2. Add diluted HeLa nucleoprotein extract to all wells except those that are marked as "blank". 3. Allow diluted Fluor de Lys™ Substrate and the samples in the microtiter plate to equilibrate to 25°C. 4. Initiate HDAC reactions by adding diluted substrate (25 µl) to each well and mixing thoroughly. 5. Allow reactions to proceed for 30 minutes and then stop them by addition of Fluor de Lys™ Developer (50 µl). Incubate plate at room temperature (25°C) for 10-15 min. 6. Read fluorescence of samples on a microtiter-plate reading fluorimeter at a excitation wavelength of 369 nm and a emitted wavelength of 451 nm.

MCF-7 = test: Tumor cell proliferation (MTS), MCF-7; format: cell-based; conditions: Homo sapiens, MCF7; MCF-7, 72 hours; read-out: Gl50 µM in MCF-7
Procedure: (§1) Tumor cells were trypsinized and plated into 96-well plates at 3,000 per well and incubated in complete medium with 10% FBS for 24 hours. Compounds to be tested and vehicle control were added, and the final concentration of compound is in the range of 100 nmol/L to 100 µmol/L. The compounds were incubated for 72 hours in complete medium. The MTS reagent (Promega) was added according to the instruction, incubated for 2 hours at 37°C in CO2 incubator. Then absorbance at 490nm is read using an ELISA plate reader.

HUVEC cells = test: VEGF dependent cell proliferation (MTS); format: cell-based; conditions: Homo sapiens, VEGF 165 (50ng/ml), 72 hours, serum-free medium, read-out: Gl50 nM (VEGF ligand-dependent cell proliferation)
Procedure: HUVEC cells were plated into 96-well plates at 6,000 per well and after 24 hours incubated with serum-free medium for 2 hours. Compounds to be tested and VEGF 165 (50ng/ml) were added and incubated for 72 hours in serum-free medium. The effects on cell proliferation were determined by MTS method (Promega) according to the instruction. Incubation was performed for 2 hours at 37°C in CO2 incubator, and absorbance at 490nm was determined using an ELISA plate reader.

A-498 = test: Tumor cell proliferation (MTS), A-498; format: cell-based; conditions: Homo sapiens, A498; A-498, 72 hours; read-out: Gl50 µM in A-498
Procedure: as §1

A549 = test: Tumor cell proliferation (MTS), A549; format: cell-based; conditions: Homo sapiens; A549, 72 hours; read-out: Gl50 µM in A549
Procedure: as §1

Bel-7402 = test: Tumor cell proliferation (MTS), Bel-7402; format: cell-based; conditions: Homo sapiens; Bel-7402, 72 hours; read-out: Gl50 µM in Bel-7402
Procedure: as §1

Class I HDAC = test: HDAC subtype selectivity reporter gene assay (P21 reporter, HeLa cells); format: cell-based; conditions: Homo sapiens, read-out: Class I HDAC (P21 reporter assay) Fold Induction at 10µM
Procedure: Different HDAC subtypes can bind with different transcriptional factors and involve in expression regulation of various genes. Suitable regulation elements for transcriptional factors are selected to construct reporter genes, which can be used to evaluate the selective inhibition of inhibors on HDAC subtypes. Briefly, HeLa cells were seeded in 96-well plates the day before transfection to give a confluence of 50-80% when transfection. Cells were transfected with one of reporter gene plasmid containing a p21-promoter sequence or response element upstream of a luciferase gene construct using FuGene6 transfection reagent according to the manufacturer's instruction (Roche). For normalizing the transfection efficiency, a GFP expression plasmid was cotransfected. After 24 hours compounds or the vehicle control (DMSO) were added. 24 hours later the cells were harvested and lysed, and the amount of the luciferase was evaluated using luciferase assay kits (Promega) according to the manufacturer's instructions.

HCT-8 = test: Tumor cell proliferation (MTS), HCT-8; format: cell-based; conditions: Homo sapiens; HCT-8, 72 hours; read-out: Gl50 µM in HCT-8
Procedure: as §1

human PDGFRβ = molecular target: T1, human PDGFRβ (Homo sapiens, UniProt P09619); test: PDGF dependent cell proliferation (MTS); format: cell-based
T1 construct: expressed in transfected cells
Procedure: NIH-3T3 mouse fibroblasts cell line engineered to stably express human PDGFRβ was constructed and used to evaluate PDGF dependent cell proliferation. PDGFRβ NIH-3T3 cells were plated into 96-well plates at 5,000 per well and incubated overnight with serum-free medium after 24 hours. Compounds to be tested and PDGF BB (50ng/ml) were added and incubated for 72 hours in serum-free medium. The effects on proliferation were determined by MTS method (Promega) according to the instruction. Incubation was performed for 2 hours at 37°C in CO2 incubator, and absorbance at 490nm was measured using an ELISA plate reader.

human HCT-8 colon cancer = test: Nude mice tumor transplanted from human HCT-8 colon cancer (Example 55); format: in vivo; conditions: for TGI (%): tumor growth inhibition
Procedure: Female nu/nu mice of 18∼20g were fed by normal diet for 3 days. Then the cultured HCT-8 human colon cancer cells were implanted into the armpit of 50 mice. […] One group was treated with vehicle. One group was treated with Sutent, the positive control drug. Two groups were treated with compound 33 at different concentrations. The other two groups were treated with compound 37 at different concentrations. Compound 33 was administered twice a day with an interval of 6 hours. For other groups, administration was performed once a day. Each group was dosed orally for 20 days. […] The tumor growth inhibition of each group was calculated using the following formula: {[(the average tumor weight of control group)-(the average tumor weight of test group)]/(the average tumor weight of control group)} × 100%. [formula] The experimental results are shown in Table 9 and Figure 5.

[1] = system: human SSMC7721 liver cancer; test: Nude mice tumor transplanted from human SSMC7721 liver cancer (Example 56); format: in vivo; conditions: for TGI (%): tumor growth inhibition
Procedure: Female nu/nu mice of 18∼20g were fed by normal diet for 3 days. Then the cultured SSMC7721 human liver cancer cells were implanted into the armpit of 50 mice. […] Each group had 8 mice. One group was treated with vehicle. One group was treated with Sutent, the positive control drug. Two groups were treated with compound 33 at different concentrations. The other two groups were treated with compound 37 at different concentrations. Each group was dosed orally once a day for 30 days. […] The tumor growth inhibition of each group was calculated using the following formula: {[(the average tumor weight of control group)-(the average tumor weight of test group)]/(the average tumor weight of control group)} × 100%. [formula] The experimental results are shown in Table 10 and Figure 6. Table10

[2] = PDGFRβ NIH-3T3 cells, PDGF BB (50ng/ml), 72 hours, serum-free medium; read-out: Gl50 nM (PDGF ligand-dependent cell proliferation)
[3] = 30 mg/kg orally once a day for 20 days
[4] = 60 mg/kg orally once a day for 20 days
[5] = 30 mg/kg orally once a day for 30 days
[6] = 60 mg/kg orally once a day for 30 days

T1 sequence (P09619 33-1106): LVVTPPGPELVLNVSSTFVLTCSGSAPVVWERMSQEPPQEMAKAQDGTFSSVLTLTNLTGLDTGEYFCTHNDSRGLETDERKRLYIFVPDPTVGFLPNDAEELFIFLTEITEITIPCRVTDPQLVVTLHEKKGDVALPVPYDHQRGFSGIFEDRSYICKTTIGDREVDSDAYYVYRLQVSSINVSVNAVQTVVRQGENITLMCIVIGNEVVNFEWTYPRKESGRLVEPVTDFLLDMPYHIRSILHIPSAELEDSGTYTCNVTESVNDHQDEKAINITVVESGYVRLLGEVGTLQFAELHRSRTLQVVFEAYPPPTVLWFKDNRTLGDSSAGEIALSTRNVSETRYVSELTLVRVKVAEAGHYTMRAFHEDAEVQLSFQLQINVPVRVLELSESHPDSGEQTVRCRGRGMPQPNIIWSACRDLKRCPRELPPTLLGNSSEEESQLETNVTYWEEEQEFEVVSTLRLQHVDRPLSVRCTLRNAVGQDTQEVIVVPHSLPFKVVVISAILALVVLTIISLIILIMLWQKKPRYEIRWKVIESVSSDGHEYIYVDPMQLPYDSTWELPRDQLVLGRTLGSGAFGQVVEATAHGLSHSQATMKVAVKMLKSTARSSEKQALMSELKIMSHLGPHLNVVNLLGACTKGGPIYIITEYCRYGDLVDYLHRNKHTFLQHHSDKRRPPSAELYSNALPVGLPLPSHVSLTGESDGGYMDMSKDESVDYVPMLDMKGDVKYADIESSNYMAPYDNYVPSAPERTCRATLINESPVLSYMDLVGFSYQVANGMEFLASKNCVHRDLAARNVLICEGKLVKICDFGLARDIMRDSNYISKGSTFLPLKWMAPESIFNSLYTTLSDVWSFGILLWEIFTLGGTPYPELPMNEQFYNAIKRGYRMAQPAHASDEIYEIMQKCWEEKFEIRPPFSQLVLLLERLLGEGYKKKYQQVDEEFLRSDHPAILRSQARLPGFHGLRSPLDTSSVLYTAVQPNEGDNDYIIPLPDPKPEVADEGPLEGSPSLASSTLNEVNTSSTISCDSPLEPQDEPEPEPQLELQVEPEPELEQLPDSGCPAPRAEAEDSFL

| Compound | % inhibition of total HDAC enzyme activity at 30µM (total HDAC enzyme) [%] | IC50 (MCF-7) [µM] | IC50 (HUVEC cells) [µM] | IC50 (A-498) [µM] | IC50 (A549) [µM] | IC50 (Bel-7402) [µM] | fold induction at 10 µM (Class I HDAC; 10µM, HeLa cells, 24 hours) | IC50 (HCT-8) [µM] | IC50 (human PDGFRβ; [2]) [µM] | other results |
| --- | --- | --- | --- | --- | --- | --- | --- | --- | --- | --- |
| COc1ccc2c(Oc3ccc4c(C(=O)Nc5ccc(F)cc5N)cccc4c3)ccnc2c1 [Compound 32, N-(2-amino-4-fluorophenyl)-6-(7-methoxyquinolin-4-yloxy)-1-naphthamide] | 21.7 | 15.9 | 0.002 | 7.5 | 8.3 | 17.3 | 1.8 | 6.6 | 0.02 | – |
| COc1cc2nccc(Oc3ccc4c(C(=O)Nc5ccccc5N)cccc4c3)c2cc1OC [Compound 35, N-(2-aminophenyl)-6-(6,7-dimethoxyquinolin-4-yloxy)-1-naphthamide] | 19.3 | 13.3 | 0.001 | 9.1 | 7.7 | 19.5 | 1.2 | 8.9 | 0.005 | – |
| COc1cc2nccc(Oc3ccc4c(C(=O)Nc5ccc(F)cc5N)cccc4c3)c2cc1OC [Compound 36, N-(2-amino-4-fluorophenyl)-6-(6,7-dimethoxyquinolin-4-yloxy)-1-naphthamide] | 14.4 | 8.9 | 0.002 | 4.2 | 7.4 | 12.1 | 1.2 | 4.1 | 0.003 | – |
| COc1cc2nccc(Oc3ccc4c(C(=O)NCc5ccc(C(=O)Nc6ccccc6N)cc5)cccc4c3)c2cc1OC [Compound 37, N-(4-((2-aminophenyl)carbamoyl)benzyl)-6-(6,7-dimethoxyquinolin-4-yloxy)-1-naphthamide] | 35.9 | 30 | 0.004 | 30 | 30 | 30 | 3 | 30 | 0.159 | Tumor weight (human HCT-8 colon cancer; [3]): 3.89 ± 1.19 g; Body weight (g) end (human HCT-8 colon cancer; [3]): 23.6 ± 2.2 g; Body weight (g) start (human HCT-8 colon cancer; [3]): 20.6 ± 0.8 g; TGI (%) (human HCT-8 colon cancer; [3]): 36.5%; Tumor weight (human HCT-8 colon cancer; [4]): 3.36 ± 0.80 g; Body weight (g) end (human HCT-8 colon cancer; [4]): 24.1 ± 2.1 g; Body weight (g) start (human HCT-8 colon cancer; [4]): 20.8 ± 0.8 g; TGI (%) (human HCT-8 colon cancer; [4]): 45.1%; Tumor weight [1, 5]: 1.45 ± 0.58 g; Body weight (g) end [1, 5]: 25.3 ± 0.9 g; Body weight (g) start [1, 5]: 20.7 ± 1.2 g; TGI (%) [1, 5]: 35.6%; Tumor weight [1, 6]: 1.28 ± 0.51 g; Body weight (g) end [1, 6]: 24.3 ± 1.1 g; Body weight (g) start [1, 6]: 21.4 ± 0.6 g; TGI (%) [1, 6]: 43.3% |
| COc1cc2nccc(Oc3ccc4c(C(=O)NCc5ccc(C(=O)Nc6ccccc6N)cn5)cccc4c3)c2cc1OC [Compound 38] | 39.3 | 9.4 | 0.025 | 6.9 | 30 | 30 | – | 8 | – | fold induction at 10 µM (Class I HDAC; HeLa, 24 h): 3.1; IC50 (human PDGFRβ; read-out: Gl50 nM (PDGF ligand-dependent cell proliferation); PDGFRβ NIH-3T3 cells, PDGF BB (50ng/ml), 72 hours, serum-free medium): 0.074 µM |
